Columns and labels:
Format in all cases: in vivo
[1] = test system: sicklepod (Cassia obtusifolia, CASOB); assay: Post-emerge greenhouse herbicide test; conditions: 250 g ai/ha, 14 days after application
Outline: (§1)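 Greenhouse pot test; acetone vehicle, 187 l/ha, 15–1000 g ai/ha. Post: 2–3 leaf, +0.25% v/v non-ionic surfactant. Pre: sown d-1, surface-watered after spray. Read-out 0–100 injury, 14 DAT.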

[2] = test system: redroot pigweed (Amaranthus retroflexus, AMARE); assay: Post-emerge greenhouse herbicide test; conditions: 250 g ai/ha, 14 days after application
Outline: as §1

[3] = test system: johnsongrass (Sorghum halepense, SORHA); assay: Post-emerge greenhouse herbicide test; conditions: 250 g ai/ha, 14 days after application
Outline: as §1

[4] = test system: common ragweed (Ambrosia artemisiifolia L., AMBEL); assay: Post-emerge greenhouse herbicide test; conditions: 250 g ai/ha, 14 days after application
Outline: as §1

[5] = test system: large crabgrass (Digitaria sanguinalis, DIGSA); assay: Post-emerge greenhouse herbicide test; conditions: 250 g ai/ha, 14 days after application
Outline: as §1

[6] = test system: barnyardgrass (Echinochloa crus-galli, ECHCG); assay: Post-emerge greenhouse herbicide test; conditions: 250 g ai/ha, 14 days after application
Outline: as §1

[7] = test system: velvetleaf (Abutilon theophrasti, ABUTH); assay: Post-emerge greenhouse herbicide test; conditions: 250 g ai/ha, 14 days after application
Outline: as §1

[8] = test system: ivyleaf morningglory (Ipomoea hederacea, IPOHE); assay: Post-emerge greenhouse herbicide test; conditions: 250 g ai/ha, 14 days after application
Outline: as §1

[9] = test system: green foxtail (Setaria viridis, SETVI); assay: Post-emerge greenhouse herbicide test; conditions: 250 g ai/ha, 14 days after application
Outline: as §1

[10] = test system: lambsquarters (Chenopodium album, CHEAL); assay: Post-emerge greenhouse herbicide test; conditions: 250 g ai/ha, 14 days after application
Outline: as §1

[11] = test system: sicklepod (Cassia obtusifolia, CASOB); assay: Pre-emerge greenhouse herbicide test; conditions: 250 g ai/ha, 14 days after application, scale 0-100 (0 no damage, 100 complete death)
Outline: as §1

[12] = test system: redroot pigweed (Amaranthus retroflexus, AMARE); assay: Pre-emerge greenhouse herbicide test; conditions: 250 g ai/ha, 14 days after application, scale 0-100 (0 no damage, 100 complete death)
Outline: as §1

[13] = test system: johnsongrass (Sorghum halepense, SORHA); assay: Pre-emerge greenhouse herbicide test; conditions: 250 g ai/ha, 14 days after application, scale 0-100 (0 no damage, 100 complete death)
Outline: as §1

[14] = test system: large crabgrass (Digitaria sanguinalis, DIGSA); assay: Pre-emerge greenhouse herbicide test; conditions: 250 g ai/ha, 14 days after application, scale 0-100 (0 no damage, 100 complete death)
Outline: as §1

[15] = test system: barnyardgrass (Echinochloa crus-galli, ECHCG); assay: Pre-emerge greenhouse herbicide test; conditions: 250 g ai/ha, 14 days after application, scale 0-100 (0 no damage, 100 complete death)
Outline: as §1

[16] = test system: velvetleaf (Abutilon theophrasti, ABUTH); assay: Pre-emerge greenhouse herbicide test; conditions: 250 g ai/ha, 14 days after application, scale 0-100 (0 no damage, 100 complete death)
Outline: as §1

[17] = test system: ivyleaf morningglory (Ipomoea hederacea, IPOHE); assay: Pre-emerge greenhouse herbicide test; conditions: 250 g ai/ha, 14 days after application, scale 0-100 (0 no damage, 100 complete death)
Outline: as §1

[18] = test system: green foxtail (Setaria viridis, SETVI); assay: Pre-emerge greenhouse herbicide test; conditions: 250 g ai/ha, 14 days after application, scale 0-100 (0 no damage, 100 complete death)
Outline: as §1

[19] = test system: lambsquarters (Chenopodium album, CHEAL); assay: Pre-emerge greenhouse herbicide test; conditions: 250 g ai/ha, 14 days after application, scale 0-100 (0 no damage, 100 complete death)
Outline: as §1

[20] = test system: upland rice (Ory0a sp., var.Tebonnet, RICE); assay: Pre-emerge greenhouse crop damage test; conditions: in vivo
Outline: as §1

[21] = test system: soybean (Glycine max L., var. Pella 86, SOY); assay: Pre-emerge greenhouse crop damage test; conditions: pre-emerge, 250 g ai/ha, 14 days after application, scale 0-100 (0 no damage, 100 complete death)
Outline: as §1

[22] = test system: field corn (Zea mays L., var. Dekalb 527, CORN); assay: Pre-emerge greenhouse crop damage test; conditions: pre-emerge, 250 g ai/ha, 14 days after application, scale 0-100 (0 no damage, 100 complete death)
Outline: as §1

[23] = test system: upland rice (Ory0a sp., var.Tebonnet, RICE); assay: Post-emerge greenhouse crop damage test; conditions: 250 g ai/ha, post-emerge, 14 days after application
Outline: as §1

[24] = test system: soybean (Glycine max L., var. Pella 86, SOY); assay: Post-emerge greenhouse crop damage test; conditions: 250 g ai/ha, post-emerge, 14 days after application
Outline: as §1

[25] = test system: field corn (Zea mays L., var. Dekalb 527, CORN); assay: Post-emerge greenhouse crop damage test; conditions: 250 g ai/ha, post-emerge, 14 days after application
Outline: as §1

Cc1nc2c(-n3ncc(C(F)(F)F)cc3=O)c(F)cc(Cl)c2o1 [Compound 12-1]
Post-emerge Herbicidal Activity CASOB (phytotoxicity rating 0-100) [1]: 10 | Post-emerge Herbicidal Activity AMARE (phytotoxicity rating 0-100) [2]: 70 | Post-emerge Herbicidal Activity SORHA (phytotoxicity rating 0-100) [3]: 0 | Post-emerge Herbicidal Activity AMBEL (phytotoxicity rating 0-100) [4]: 20 | Post-emerge Herbicidal Activity DIGSA (phytotoxicity rating 0-100) [5]: 0 | Post-emerge Herbicidal Activity ECHCG (phytotoxicity rating 0-100) [6]: 50 | Post-emerge Herbicidal Activity ABUTH (phytotoxicity rating 0-100) [7]: 95 | Post-emerge Herbicidal Activity IPOHE (phytotoxicity rating 0-100) [8]: 40 | Post-emerge Herbicidal Activity SETVI (phytotoxicity rating 0-100) [9]: 0 | Post-emerge Herbicidal Activity CHEAL (phytotoxicity rating 0-100) [10]: 0 | Pre-emerge Herbicidal Activity CASOB (phytotoxicity rating) [11]: 90 | Pre-emerge Herbicidal Activity AMARE (phytotoxicity rating) [12]: 100 | Pre-emerge Herbicidal Activity SORHA (phytotoxicity rating) [13]: 100 | Pre-emerge Herbicidal Activity DIGSA (phytotoxicity rating) [14]: 100 | Pre-emerge Herbicidal Activity ECHCG (phytotoxicity rating) [15]: 100 | Pre-emerge Herbicidal Activity ABUTH (phytotoxicity rating) [16]: 100 | Pre-emerge Herbicidal Activity IPOHE (phytotoxicity rating) [17]: 99 | Pre-emerge Herbicidal Activity SETVI (phytotoxicity rating) [18]: 100 | Pre-emerge Herbicidal Activity CHEAL (phytotoxicity rating) [19]: 100 | Pre-emerge Herbicidal Activity RICE (crop damage rating) [20]: 90 | Pre-emerge Herbicidal Activity SOY (crop damage rating) [21]: 70 | Pre-emerge Herbicidal Activity CORN (crop damage rating) [22]: 100 | Post-emerge crop damage RICE (phytotoxicity rating 0-100) [23]: 10 | Post-emerge crop damage SOY (phytotoxicity rating 0-100) [24]: 50 | Post-emerge crop damage CORN (phytotoxicity rating 0-100) [25]: 0
